# Test results from US9790229B2, “Bruton's tyrosine kinase inhibitors” (priority 2009, dated 2017).
# Biological target: BTK (Homo sapiens (Human), UniProt Q06187)
# Assay: In vitro BTK kinase assay: BTK-POLYGAT-LS ASSAY
# Conditions: not given
# Chain of BTK (Q06187 whole entry): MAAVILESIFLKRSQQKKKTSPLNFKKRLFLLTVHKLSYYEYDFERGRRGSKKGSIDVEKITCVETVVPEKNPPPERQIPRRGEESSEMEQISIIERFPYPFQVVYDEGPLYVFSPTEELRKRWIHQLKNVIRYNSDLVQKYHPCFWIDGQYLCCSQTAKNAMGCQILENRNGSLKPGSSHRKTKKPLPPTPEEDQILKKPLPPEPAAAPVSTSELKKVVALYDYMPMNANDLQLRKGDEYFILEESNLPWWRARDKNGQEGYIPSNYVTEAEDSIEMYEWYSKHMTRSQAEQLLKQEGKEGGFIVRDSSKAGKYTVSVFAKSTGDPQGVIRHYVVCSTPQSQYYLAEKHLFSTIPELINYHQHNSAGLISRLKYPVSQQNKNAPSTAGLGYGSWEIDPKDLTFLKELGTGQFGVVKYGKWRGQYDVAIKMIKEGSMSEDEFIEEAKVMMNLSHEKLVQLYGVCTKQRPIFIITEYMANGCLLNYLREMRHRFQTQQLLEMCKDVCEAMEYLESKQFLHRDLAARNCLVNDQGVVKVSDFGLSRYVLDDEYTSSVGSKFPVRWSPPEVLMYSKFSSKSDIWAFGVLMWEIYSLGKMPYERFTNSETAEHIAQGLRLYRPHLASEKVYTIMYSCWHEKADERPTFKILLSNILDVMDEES
row,SMILES,IC50 [µM]
1,"Nc1ncnc(N2CC[C@@H](O)[C@H](N3CCC[C@H](Nc4cc(Cl)cc(Cl)c4)C3=O)C2)c1F [compound 328, trans (3S)-1′-(6-Amino-5-fluoropyrimidin-4-yl)-3-(3,5-dichlorophenylamino)-4′-hydroxy-1,3′-bipiperidin-2-one]",1 to 10
2,O=C(Nc1cccc(F)c1)Nc1cccc(C2CCCN(c3ncnc4[nH]ccc34)C2)c1 (stereo not drawn) [compound 183],1 to 10
3,"O=C(Nc1cccnc1)Nc1cccc(C2CCCN(c3ncnc4[nH]ccc34)C2)c1 (stereo not drawn) [Cmpd 30, 1-(3-(1-(7H-pyrrolo[2,3-d]pyrimidin-4-yl)piperidin-3-yl)phenyl)-3-(pyridin-3-yl)urea]",1 to 10
4,COc1ncccc1NC(=O)Nc1cccc(C2CCCN(c3ncnc4[nH]ccc34)C2)c1 (stereo not drawn) [compound 215],1 to 10
5,O=C(Nc1cccc(C2CCCN(c3ncnc4[nH]ccc34)C2)c1)NC1CCCC1 (stereo not drawn) [compound 193],1 to 10
6,"Nc1ncnc(N2CCC(F)C(N3CCCC(Nc4cc(F)cc(Cl)c4)C3=O)C2)c1F (stereo not drawn) [compound 340, 1′-(6-Amino-5-fluoropyrimidin-4-yl)-3-(3-chloro-5-fluorophenylamino)-4′-fluoro-1,3′-bipiperidin-2-one]",0.1 to 0.999
7,"Nc1ncnc(N2CCC[C@@H](N3CCCC(Nc4cc(F)cc(Cl)c4)C3=O)C2)c1Cl (stereo partly drawn) [compound 289, (3′R)-1′-(6-Amino-5-chloropyrimidin-4-yl)-3-(3-chloro-5-fluorophenylamino)-1,3′-bipiperidin-2-one]",0.1 to 0.999
8,"O=C(Nc1cc(C2CCCN(c3ncnc4[nH]ccc34)C2)ccc1OC(F)(F)F)c1ccccc1 (stereo not drawn) [Cmpd 85, N-(5-(1-(7H-pyrrolo[2,3-d]pyrimidin-4-yl)piperidin-3-yl)-2-(trifluoromethoxy)phenyl)benzamide]",0.1 to 0.999
9,"CCCNc1ncnc(N2CCC[C@@H](N3CCCC(Nc4cc(F)cc(Cl)c4)C3=O)C2)c1F (stereo partly drawn) [compound 288, (3′R)-3-(3-Chloro-5-fluorophenylamino)-1′-(5-fluoro-6-(propylamino)pyrimidin-4-yl)-1,3′-bipiperidin-2-one]",1 to 10
10,CC(C)(O)c1ccccc1NC(=O)Nc1cccc(C2CCCN(c3ncnc4[nH]ccc34)C2)c1 (stereo not drawn) [compound 195],1 to 10
11,"O=C(Nc1cccc(C2CCCN(c3ncnc4[nH]ccc34)C2)c1)c1ccc(Cl)cc1 (stereo not drawn) [Cmpd 3, N-(3-(1-(7H-pyrrolo[2,3-d]pyrimidin-4-yl)piperidin-3-yl)phenyl)-4-chlorobenzamide]",1 to 10
12,O=C(Nc1cccc(C2CCCN(c3ncnc4[nH]ccc34)C2)c1)Nc1cccnc1O (stereo not drawn) [compound 198],1 to 10
13,"CC(C)c1cc(=O)nc(Nc2cccc(C3CCCN(c4ncnc5[nH]ccc45)C3)c2)[nH]1 (stereo not drawn) [compound 121, 2-(3-(1-(7H-pyrrolo[2,3-d]pyrimidin-4-yl)piperidin-3-yl)phenylamino)-6-isopropylpyrimidin-4(1H)-one]",1 to 10
14,O=C(Nc1cccc(C2CN(c3ncnc4[nH]ccc34)CCC2CO)c1)Nc1ccccc1N1CCCC1 (stereo not drawn) [compound 163],0.1 to 0.999
15,O=C(Nc1cccc(C2CCCN(c3ncnc4[nH]ccc34)C2)c1)Nc1ccccc1N1CCCC1=O (stereo not drawn) [compound 170],0.1 to 0.999
16,"O=C(Nc1cccc(C2CCCN(c3ncnc4[nH]ccc34)C2)c1)c1cccc(Cl)c1 (stereo not drawn) [Cmpd 4, N-(3-(1-(7H-pyrrolo[2,3-d]pyrimidin-4-yl)piperidin-3-yl)phenyl)-3-chlorobenzamide]",1 to 10
17,"Nc1ncnc(N2CCC[C@@H](N3CCCC(Nc4ccccc4C(=O)O)C3=O)C2)c1F (stereo partly drawn) [compound 297, 2-((3′R)-1′-(6-Amino-5-fluoropyrimidin-4-yl)-2-oxo-1,3′-bipiperidin-3-ylamino)benzoic acid]",1 to 10
18,"O=C(Nc1ccccc1)Nc1cccc(C2CCCN(c3ncnc4[nH]ncc34)C2)c1 (stereo not drawn) [Cmpd 91, 1-(3-(1-(1H-pyrazolo[3,4-d]pyrimidin-4-yl)piperidin-3-yl)phenyl)-3-phenylurea]",1 to 10
19,O=C1C(Nc2ccccc2)c2ccccc2N1[C@@H]1CCCN(c2ncnc3[nH]ccc23)C1 (stereo partly drawn) [compound 274],1 to 10
20,"O=C(Nc1cc(C2CCCN(c3ncnc4[nH]ccc34)C2)ccc1OC(F)(F)F)c1c(F)cccc1Cl (stereo not drawn) [Cmpd 90, N-(5-(1-(7H-pyrrolo[2,3-d]pyrimidin-4-yl)piperidin-3-yl)-2-(trifluoromethoxy)phenyl)-2-chloro-6-fluorobenzamide]",0.1 to 0.999
21,CC(C)(C)c1ccccc1NC(=O)Nc1cccc(C2CCCN(c3ncnc4[nH]ccc34)C2)c1 (stereo not drawn) [compound 167],0.1 to 0.999
22,O=C(Nc1cccc(C2CCCN(c3ncnc4[nH]ccc34)C2)c1)N[C@@H](CO)C1CCCCC1 (stereo partly drawn) [compound 213],1 to 10
23,"O=C(Nc1cccc([C@H]2CN(c3ncnc4[nH]ccc34)CC[C@H]2CO)c1)Nc1ccccc1N1CCCC1 [compound 123, 1-(3-((3S/R)-4-(hydroxymethyl)-1-(7H-pyrrolo[2,3-d]pyrimidin-4-yl)piperidin-3-yl)phenyl)-3-(2-(pyrrolidin-1-yl)phenyl)urea]",0.1 to 0.999

# Same assay, conditions: read-out: IC50 (10 uM ATP); 10 uM ATP; in vitro Btk kinase assay, Example 41
row,SMILES,IC50 [µM]
1,"Nc1ncnc(N2CCC[C@@H](N3CCCC(Nc4cc(F)cc(Cl)c4)C3=O)C2)c1F (stereo in doubt) [compound 314, (3S,3′R)-1′-(6-Amino-5-fluoropyrimidin-4-yl)-3-(3-chloro-5-fluorophenylamino)-1,3′-bipiperidin-2-one]",< 0.1
2,"Nc1ncnc(N2CCC[C@@H](N3CCCC(Nc4cc(Cl)cc(Cl)c4)C3=O)C2)c1F (stereo partly drawn) [compound 278, (3′R)-1′-(6-amino-5-fluoropyrimidin-4-yl)-3-(3,5-dichlorophenylamino)-1,3′-bipiperidin-2-one]",< 0.1
3,O=C(NCC1CCS(=O)(=O)C1)Nc1cccc(C2CCCN(c3ncnc4[nH]ccc34)C2)c1 (stereo not drawn) [compound 247],> 10
4,"O=C(Nc1ccncc1)Nc1cccc(C2CCCN(c3ncnc4[nH]ccc34)C2)c1 (stereo not drawn) [Cmpd 31, 1-(3-(1-(7H-pyrrolo[2,3-d]pyrimidin-4-yl)piperidin-3-yl)phenyl)-3-(pyridin-4-yl)urea]",> 10
5,"N#Cc1c(N)ncnc1N1CCCC(c2nc(NC(=O)Nc3c(F)cc(F)cc3N3CCCC3)cs2)C1 (stereo not drawn) [compound 113, 1-(2-(1-(6-amino-5-cyanopyrimidin-4-yl)piperidin-3-yl)thiazol-4-yl)-3-(2,4-difluoro-6-(pyrrolidin-1-yl)phenyl)urea]",< 0.1
6,"Nc1ncnc(N2CC[C@@H](F)[C@H](N3CCC[C@@H](Nc4cc(F)cc(Cl)c4)C3=O)C2)c1F [compound 342, (3R,3′R,4′R)-1′-(6-amino-5-fluoropyrimidin-4-yl)-3-(3-chloro-5-fluorophenylamino)-4′-fluoro-1,3′-bipiperidin-2-one]",> 10
7,"Nc1ncnc(N2C[C@@H](F)C[C@@H](N3CCCC(Nc4cc(Cl)cc(Cl)c4)C3=O)C2)c1F (stereo partly drawn) [compound 280, (3′R,5′S)-1′-(6-Amino-5-fluoropyrimidin-4-yl)-3-(3,5-dichlorophenylamino)-5′-fluoro-1,3′-bipiperidin-2-one]",< 0.1
8,O=C(NCC1CCCCN1)Nc1cccc(C2CCCN(c3ncnc4[nH]ccc34)C2)c1 (stereo not drawn) [compound 252],> 10
9,"O=C1C(Nc2cc(Cl)cc(Cl)c2)CCCN1[C@@H]1CCCN(c2ncnc3[nH]ccc23)C1 (stereo partly drawn) [compound 276, (3′R)-3-(3,5-Dichloro-phenylamino)-1′-(7H-pyrrolo[2,3-d]pyrimidin-4-yl)-1,3′-bipiperidin-2-one]",< 0.1
10,"C[C@H]1CCN(c2ncnc(N)c2F)C[C@@H]1N1CCCC(Nc2cccc(Cl)c2)C1=O (stereo partly drawn) [compound 282, trans-1′-(6-Amino-5-fluoropyrimidin-4-yl)-3-(3-chlorophenylamino)-4′-methyl-1,3′-bipiperidin-2-one]",< 0.1
11,O=C(NCCC1CCCCC1)Nc1cccc(C2CCCN(c3ncnc4[nH]ccc34)C2)c1 (stereo not drawn) [compound 259],> 10
12,CC(C)(C)NC(=O)Nc1cccc(C2CCCN(c3ncnc4[nH]ccc34)C2)c1 (stereo not drawn) [compound 250],> 10
13,"O=C(Cc1ccccc1)Nc1cccc(C2CCCN(c3ncnc4[nH]ccc34)C2)c1 (stereo not drawn) [Cmpd 9, N-(3-(1-(7H-pyrrolo[2,3-d]pyrimidin-4-yl)piperidin-3-yl)phenyl)-2-phenylacetamide]",> 10
14,"Cc1ccc(C2CCCN(c3ncnc4[nH]ccc34)C2)cc1NC(=O)c1ccccc1 (stereo not drawn) [Cmpd 82, N-(5-(1-(7H-pyrrolo[2,3-d]pyrimidin-4-yl)piperidin-3-yl)-2-methylphenyl)benzamide]",> 10
15,"O=C1C(Nc2cc(Cl)cc(Cl)c2)CCCN1[C@H]1CN(c2ncnc3[nH]ccc23)CC[C@@H]1C(F)(F)F (stereo partly drawn) [compound 339, trans-3-(3,5-Dichlorophenylamino)-1′-(7H-pyrrolo[2,3-d]pyrimidin-4-yl)-4′-(trifluoromethyl)-1,3′-bipiperidin-2-one]",< 0.1
16,"O=C(Nc1ccccc1)Nc1ncc(C2CCCN(c3ncnc4[nH]ccc34)C2)s1 (stereo not drawn) [compound 115, 1-(5-(1-(7H-pyrrolo[2,3-d]pyrimidin-4-yl)piperidin-3-yl)thiazol-2-yl)-3-phenylurea]",> 10
17,Cn1nccc1NC(=O)Nc1cccc(C2CCCN(c3ncnc4[nH]ccc34)C2)c1 (stereo not drawn) [compound 249],> 10
18,Nc1ncnc(N2CC[C@@H](C(F)(F)F)[C@H](N3CC=CC[C@@H](Nc4cc(F)cc(Cl)c4)C3=O)C2)c1F [compound 350],< 0.1
19,"Nc1ncnc(N2CCC[C@@H](N3CCCC(Nc4cccc(C(=O)O)c4)C3=O)C2)c1F (stereo partly drawn) [compound 299, 3-((3′R)-1′-(6-Amino-5-fluoropyrimidin-4-yl)-2-oxo-1,3′-bipiperidin-3-ylamino)benzoic acid]",> 10
20,"Nc1ncnc(N2C[C@@H](O)C[C@@H](N3CCCC(Nc4cc(Cl)cc(Cl)c4)C3=O)C2)c1F (stereo partly drawn) [compound 283, (3′R,5′S)-1′-(6-Amino-5-fluoropyrimidin-4-yl)-3-(3,5-dichlorophenylamino)-5′-hydroxy-1,3′-bipiperidin-2-one]",< 0.1
21,O=C(Nc1ccccc1)N[C@H]1CCN(C2CCCN(c3ncnc4[nH]ccc34)C2)C1 (stereo partly drawn) [compound 256],> 10
22,"O=C(Nc1cccc(C2CCCN(c3ncnc4[nH]ccc34)C2)c1)c1ccccn1 (stereo not drawn) [compound 13, N-(3-(1-(7H-pyrrolo[2,3-d]pyrimidin-4-yl)piperidin-3-yl)phenyl)picolinamide]",> 10
